Results as given in PubChem BioAssay (NCI).
Where “and” joins values, the source holds several entries; their conditions need not be identical. Identical values can stand only once.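 Tested at 5 concentrations; 48 h exposure; 96-well plates; endpoints linearly interpolated, else capped at highest concentration. GI50: concentration for 50% inhibition of growth. TGI denotes the concentration required for complete inhibition of growth.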

Experiments:
Test in all cases: DTP human tumour cell line panel, 48 h; in the data active = GI50 below about 0.43 µM; inactive = the rest
[1] = tested on: 786-0 renal
[2] = tested on: A498 renal
[3] = tested on: A549 NSCLC
[4] = tested on: ACHN renal
[5] = tested on: BT-549 breast
[6] = tested on: CAKI-1 renal
[7] = tested on: CCRF-CEM leukemia
[8] = tested on: COLO 205 colon
[9] = tested on: DU-145 prostate
[10] = tested on: EKVX NSCLC
[11] = tested on: HCC-2998 colon
[12] = tested on: HCT-116 colon
[13] = tested on: HCT-15 colon
[14] = tested on: HL-60(TB) leukemia
[15] = tested on: HOP-62 NSCLC
[16] = tested on: HOP-92 NSCLC
[17] = tested on: HS 578T breast
[18] = tested on: HT29 colon
[19] = tested on: IGROV1 ovarian
[20] = tested on: K-562 leukemia
[21] = tested on: KM12 colon
[22] = tested on: LOX IMVI melanoma
[23] = tested on: M14 melanoma
[24] = tested on: MALME-3M melanoma
[25] = tested on: MCF7 breast
[26] = tested on: MDA-MB-231 breast
[27] = tested on: MDA-MB-435
[28] = tested on: MOLT-4 leukemia
[29] = tested on: NCI-H226 lung
[30] = tested on: NCI-H23 lung
[31] = tested on: NCI-H460 lung
[32] = tested on: NCI-H522 lung
[33] = tested on: NCI/ADR-RES ovarian
[34] = tested on: OVCAR-3 ovarian
[35] = tested on: OVCAR-4 ovarian
[36] = tested on: OVCAR-5 ovarian
[37] = tested on: OVCAR-8 ovarian
[38] = tested on: PC-3 prostate
[39] = tested on: RPMI-8226 leukemia
[40] = tested on: RXF 393 renal
[41] = tested on: SF-268 CNS
[42] = tested on: SF-295 CNS
[43] = tested on: SF-539 CNS
[44] = tested on: SK-MEL-2 melanoma
[45] = tested on: SK-MEL-28 melanoma
[46] = tested on: SK-MEL-5 melanoma
[47] = tested on: SK-OV-3 ovarian
[48] = tested on: SN12C renal
[49] = tested on: SNB-19 CNS
[50] = tested on: SNB-75 CNS
[51] = tested on: SR leukemia
[52] = tested on: SW-620 colon
[53] = tested on: T-47D breast
[54] = tested on: TK-10 renal
[55] = tested on: U251 CNS
[56] = tested on: UACC-62 melanoma
[57] = tested on: UO-31 renal
[58] = tested on: MDA-N
[59] = tested on: UACC-257 melanoma

COc1cccc(-c2cc(NCc3ccc4c(c3)OCO4)nc(N)n2)c1
16.5 µM: TGI [30] | TGI [52]
48.3 µM: TGI [38]
12.9 µM: TGI [1]
0.583 µM: TGI [47]
5.15 µM: TGI [5]
45.4 µM: TGI [49]
18.1 µM: TGI [56]
28.8 µM: TGI [36]
17.9 µM: TGI [44]
27.5 µM: TGI [35]
50.6 µM: TGI [53]
14.4 µM: TGI [42] | TGI [50]
22.9 µM: TGI [41]
27.6 µM: TGI [17]
0.988 µM: TGI [34]
0.0521 µM: TGI [27]
11.2 µM: TGI [55]
34.2 µM: TGI [39]
3.22 µM: TGI [43]
0.763 µM: TGI [2]
19.4 µM: TGI [22]
13.7 µM: TGI [26]
0.198 µM: TGI [8]
17.4 µM: TGI [15]
29 µM: TGI [54]
0.296 µM: TGI [14]
52.3 µM: TGI [10]
1.91 µM: TGI [23]
22 µM: TGI [48]
19.1 µM: TGI [19]
13.9 µM: TGI [13] | TGI [25]
11.6 µM: TGI [12]
active: GI50 [1] 0.0819 µM | GI50 [2] 0.033 µM | GI50 [3] 0.057 µM | GI50 [4] 0.24 µM | GI50 [5] 0.149 µM | GI50 [7] 0.0762 µM | GI50 [8] 0.0466 µM | GI50 [9] 0.125 µM | GI50 [11] 0.137 µM | GI50 [12] 0.0473 µM | GI50 [13] 0.0533 µM | GI50 [14] 0.0324 µM | GI50 [15] 0.362 µM | GI50 [17] 0.0505 µM | GI50 [18] 0.0423 µM | GI50 [19] 0.143 µM | GI50 [20] 0.041 µM | GI50 [21] 0.072 µM | GI50 [22] 0.0773 µM | GI50 [23] 0.0479 µM | GI50 [24] 0.112 µM | GI50 [25] 0.0765 µM | GI50 [26] 0.228 µM | GI50 [27] 0.0175 µM | GI50 [28] 0.11 µM | GI50 [30] 0.135 µM | GI50 [31] 0.0428 µM | GI50 [32] 0.0607 µM | GI50 [33] 0.0458 µM | GI50 [34] 0.0409 µM | GI50 [35] 0.225 µM | GI50 [37] 0.123 µM | GI50 [38] 0.0868 µM | GI50 [39] 0.172 µM | GI50 [40] 0.11 µM | GI50 [42] 0.0597 µM | GI50 [43] 0.0909 µM | GI50 [44] 0.219 µM | GI50 [45] 0.0724 µM | GI50 [46] 0.0432 µM | GI50 [47] 0.0526 µM | GI50 [48] 0.103 µM | GI50 [49] 0.143 µM | GI50 [50] 0.0368 µM | GI50 [51] 0.0453 µM | GI50 [52] 0.0422 µM | GI50 [55] 0.0552 µM | GI50 [56] 0.0546 µM | GI50 [57] 0.104 µM
12.8 µM: TGI [28]
32.4 µM: TGI [6]
9.59 µM: TGI [31]
75 µM: TGI [51]
26.3 µM: TGI [24]
14.9 µM: TGI [3]
19.7 µM: TGI [45]
20.5 µM: TGI [16]
3.6 µM: TGI [46]
2.9 µM: TGI [11]
inactive: GI50 [6] 1.06 µM | GI50 [10] 3.33 µM | GI50 [16] 4.04 µM | GI50 [29] 11.7 µM | GI50 [36] 0.488 µM | GI50 [41] 3.29 µM | GI50 [53] 16.9 µM | GI50 [54] 8.96 µM
0.494 µM: TGI [33]
8.18 µM: TGI [21]
17.2 µM: TGI [40]
5.2 µM: TGI [37]
17 µM: TGI [57]
1.27 µM: TGI [32]
12.1 µM: TGI [9]
29.3 µM: TGI [4]
32.5 µM: TGI [29]
6.84 µM: TGI [18]
> 34 µM: TGI [20]
> 100 µM: TGI [7]

COc1ccc(OC)c(/C=C/c2cnnc3ccccc23)c1
8.62 µM: TGI [43]
6.43 µM: TGI [44]
7.76 µM: TGI [17]
7.81 µM: TGI [33]
> 10 µM: TGI [1] | TGI [3] | TGI [4] | TGI [6] | TGI [7] | TGI [8] | TGI [9] | TGI [10] | TGI [11] | TGI [12] | TGI [13] | TGI [14] | TGI [15] | TGI [16] | TGI [18] | TGI [19] | TGI [20] | TGI [21] | TGI [22] | TGI [23] | TGI [25] | TGI [26] | TGI [28] | TGI [29] | TGI [30] | TGI [31] | TGI [32] | TGI [34] | TGI [35] | TGI [36] | TGI [37] | TGI [38] | TGI [39] | TGI [40] | TGI [41] | TGI [42] | TGI [45] | TGI [46] | TGI [47] | TGI [48] | TGI [49] | TGI [50] | TGI [52] | TGI [53] | TGI [54] | TGI [55] | TGI [59] | TGI [56] | TGI [57]
5.14 µM: TGI [51]
2.5 µM: TGI [58]
2.01 µM: TGI [27]

CN(C)C1COC2Cc3ccccc3C1O2 (centres undefined)
83.5 µM and 79.7 µM: TGI [50]
> 100 µM: TGI [1] | TGI [2] | TGI [3] | TGI [4] | TGI [6] | TGI [7] | TGI [8] | TGI [9] | TGI [10] | TGI [11] | TGI [12] | TGI [13] | TGI [14] | TGI [15] | TGI [16] | TGI [17] | TGI [18] | TGI [19] | TGI [20] | TGI [21] | TGI [22] | TGI [23] | TGI [24] | TGI [25] | TGI [26] | TGI [27] | TGI [58] | TGI [28] | TGI [29] | TGI [30] | TGI [31] | TGI [32] | TGI [33] | TGI [34] | TGI [35] | TGI [36] | TGI [37] | TGI [38] | TGI [39] | TGI [40] | TGI [41] | TGI [42] | TGI [43] | TGI [44] | TGI [45] | TGI [46] | TGI [47] | TGI [48] | TGI [49] | TGI [51] | TGI [52] | TGI [53] | TGI [54] | TGI [55] | TGI [59] | TGI [56] | TGI [57]
inactive: GI50 [50] 3.16 µM and 11.2 µM
